Tests used:
Histamine H2 receptor = Histamine H2 receptor (Homo sapiens, UniProt P25021); format: functional, cell-based
[1] = target: T1, Alpha-1A adrenergic receptor (Homo sapiens, UniProt P35348); format: functional, cell-based
T1 sequence (P35348 whole entry): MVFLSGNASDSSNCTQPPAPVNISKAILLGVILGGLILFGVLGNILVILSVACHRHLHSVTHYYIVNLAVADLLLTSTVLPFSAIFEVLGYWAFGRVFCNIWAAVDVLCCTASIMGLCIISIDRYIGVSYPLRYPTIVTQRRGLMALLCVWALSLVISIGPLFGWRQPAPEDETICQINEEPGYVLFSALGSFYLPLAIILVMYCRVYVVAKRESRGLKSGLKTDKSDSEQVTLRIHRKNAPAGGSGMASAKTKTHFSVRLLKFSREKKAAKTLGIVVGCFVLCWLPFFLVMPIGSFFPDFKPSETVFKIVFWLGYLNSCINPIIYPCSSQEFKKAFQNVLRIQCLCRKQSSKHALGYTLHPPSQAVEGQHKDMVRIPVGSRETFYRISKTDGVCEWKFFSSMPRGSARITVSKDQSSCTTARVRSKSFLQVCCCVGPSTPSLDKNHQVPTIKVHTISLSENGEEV

[2] = target: T2, Neuropeptide Y receptor type 1 (Homo sapiens, UniProt P25929)
T2 sequence (P25929 whole entry): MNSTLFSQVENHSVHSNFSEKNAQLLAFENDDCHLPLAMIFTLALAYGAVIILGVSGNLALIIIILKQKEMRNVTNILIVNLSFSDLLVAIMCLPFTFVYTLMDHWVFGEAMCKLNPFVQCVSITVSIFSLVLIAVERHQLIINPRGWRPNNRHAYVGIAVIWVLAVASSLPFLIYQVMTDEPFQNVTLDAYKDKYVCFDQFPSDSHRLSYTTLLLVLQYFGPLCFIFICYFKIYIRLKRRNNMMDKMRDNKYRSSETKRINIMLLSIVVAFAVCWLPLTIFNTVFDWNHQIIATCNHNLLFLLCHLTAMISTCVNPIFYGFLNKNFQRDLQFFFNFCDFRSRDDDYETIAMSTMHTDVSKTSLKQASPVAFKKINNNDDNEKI

Endothelin-1 receptor = target: T3, Endothelin-1 receptor (Homo sapiens, UniProt P25101)
T3 sequence (P25101 whole entry): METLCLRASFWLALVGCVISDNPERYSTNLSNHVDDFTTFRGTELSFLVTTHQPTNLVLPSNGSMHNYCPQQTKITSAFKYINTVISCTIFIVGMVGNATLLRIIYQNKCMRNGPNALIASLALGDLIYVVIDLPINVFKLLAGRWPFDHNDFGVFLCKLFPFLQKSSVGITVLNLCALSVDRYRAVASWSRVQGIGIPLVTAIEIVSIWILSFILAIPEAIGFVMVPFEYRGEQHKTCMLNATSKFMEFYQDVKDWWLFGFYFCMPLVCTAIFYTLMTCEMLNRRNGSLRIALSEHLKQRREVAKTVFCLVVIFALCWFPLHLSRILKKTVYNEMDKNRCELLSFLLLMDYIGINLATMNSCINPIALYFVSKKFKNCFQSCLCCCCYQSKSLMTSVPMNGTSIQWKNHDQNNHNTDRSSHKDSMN

Vasopressin V2 receptor = Vasopressin V2 receptor (Homo sapiens, UniProt P30518)
Vasopressin V2 receptor, sequence (P30518 whole entry): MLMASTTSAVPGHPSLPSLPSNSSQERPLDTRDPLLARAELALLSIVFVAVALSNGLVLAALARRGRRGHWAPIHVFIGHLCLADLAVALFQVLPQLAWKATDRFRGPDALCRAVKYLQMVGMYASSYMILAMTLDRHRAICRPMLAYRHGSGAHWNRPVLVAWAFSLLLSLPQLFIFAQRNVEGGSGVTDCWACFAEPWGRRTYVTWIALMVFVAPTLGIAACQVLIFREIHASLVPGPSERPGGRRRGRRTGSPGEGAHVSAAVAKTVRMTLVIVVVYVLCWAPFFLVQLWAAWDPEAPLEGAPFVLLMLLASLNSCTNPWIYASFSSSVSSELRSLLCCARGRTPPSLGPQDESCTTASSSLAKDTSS

[3] = target: Beta-1 adrenergic receptor (Homo sapiens, UniProt P08588); format: functional
Beta-1 adrenergic receptor, sequence (P08588 whole entry): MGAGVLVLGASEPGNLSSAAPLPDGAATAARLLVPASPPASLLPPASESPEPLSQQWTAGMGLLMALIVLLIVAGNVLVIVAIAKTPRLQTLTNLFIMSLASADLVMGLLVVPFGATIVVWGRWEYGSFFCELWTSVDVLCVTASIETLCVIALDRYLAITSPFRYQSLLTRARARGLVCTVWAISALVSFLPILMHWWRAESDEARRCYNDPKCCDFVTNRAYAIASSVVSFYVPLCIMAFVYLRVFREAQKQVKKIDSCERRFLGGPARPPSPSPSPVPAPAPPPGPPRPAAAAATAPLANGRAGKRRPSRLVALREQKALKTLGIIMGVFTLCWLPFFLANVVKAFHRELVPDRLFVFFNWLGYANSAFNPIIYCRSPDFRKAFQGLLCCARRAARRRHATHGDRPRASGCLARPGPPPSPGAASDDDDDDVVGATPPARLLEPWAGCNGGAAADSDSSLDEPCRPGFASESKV

[4] = target: Voltage-dependent L-type calcium channel subunit alpha-1C (Rattus norvegicus, UniProt P22002); format: functional
Voltage-dependent L-type calcium channel subunit alpha-1C, sequence (P22002 whole entry): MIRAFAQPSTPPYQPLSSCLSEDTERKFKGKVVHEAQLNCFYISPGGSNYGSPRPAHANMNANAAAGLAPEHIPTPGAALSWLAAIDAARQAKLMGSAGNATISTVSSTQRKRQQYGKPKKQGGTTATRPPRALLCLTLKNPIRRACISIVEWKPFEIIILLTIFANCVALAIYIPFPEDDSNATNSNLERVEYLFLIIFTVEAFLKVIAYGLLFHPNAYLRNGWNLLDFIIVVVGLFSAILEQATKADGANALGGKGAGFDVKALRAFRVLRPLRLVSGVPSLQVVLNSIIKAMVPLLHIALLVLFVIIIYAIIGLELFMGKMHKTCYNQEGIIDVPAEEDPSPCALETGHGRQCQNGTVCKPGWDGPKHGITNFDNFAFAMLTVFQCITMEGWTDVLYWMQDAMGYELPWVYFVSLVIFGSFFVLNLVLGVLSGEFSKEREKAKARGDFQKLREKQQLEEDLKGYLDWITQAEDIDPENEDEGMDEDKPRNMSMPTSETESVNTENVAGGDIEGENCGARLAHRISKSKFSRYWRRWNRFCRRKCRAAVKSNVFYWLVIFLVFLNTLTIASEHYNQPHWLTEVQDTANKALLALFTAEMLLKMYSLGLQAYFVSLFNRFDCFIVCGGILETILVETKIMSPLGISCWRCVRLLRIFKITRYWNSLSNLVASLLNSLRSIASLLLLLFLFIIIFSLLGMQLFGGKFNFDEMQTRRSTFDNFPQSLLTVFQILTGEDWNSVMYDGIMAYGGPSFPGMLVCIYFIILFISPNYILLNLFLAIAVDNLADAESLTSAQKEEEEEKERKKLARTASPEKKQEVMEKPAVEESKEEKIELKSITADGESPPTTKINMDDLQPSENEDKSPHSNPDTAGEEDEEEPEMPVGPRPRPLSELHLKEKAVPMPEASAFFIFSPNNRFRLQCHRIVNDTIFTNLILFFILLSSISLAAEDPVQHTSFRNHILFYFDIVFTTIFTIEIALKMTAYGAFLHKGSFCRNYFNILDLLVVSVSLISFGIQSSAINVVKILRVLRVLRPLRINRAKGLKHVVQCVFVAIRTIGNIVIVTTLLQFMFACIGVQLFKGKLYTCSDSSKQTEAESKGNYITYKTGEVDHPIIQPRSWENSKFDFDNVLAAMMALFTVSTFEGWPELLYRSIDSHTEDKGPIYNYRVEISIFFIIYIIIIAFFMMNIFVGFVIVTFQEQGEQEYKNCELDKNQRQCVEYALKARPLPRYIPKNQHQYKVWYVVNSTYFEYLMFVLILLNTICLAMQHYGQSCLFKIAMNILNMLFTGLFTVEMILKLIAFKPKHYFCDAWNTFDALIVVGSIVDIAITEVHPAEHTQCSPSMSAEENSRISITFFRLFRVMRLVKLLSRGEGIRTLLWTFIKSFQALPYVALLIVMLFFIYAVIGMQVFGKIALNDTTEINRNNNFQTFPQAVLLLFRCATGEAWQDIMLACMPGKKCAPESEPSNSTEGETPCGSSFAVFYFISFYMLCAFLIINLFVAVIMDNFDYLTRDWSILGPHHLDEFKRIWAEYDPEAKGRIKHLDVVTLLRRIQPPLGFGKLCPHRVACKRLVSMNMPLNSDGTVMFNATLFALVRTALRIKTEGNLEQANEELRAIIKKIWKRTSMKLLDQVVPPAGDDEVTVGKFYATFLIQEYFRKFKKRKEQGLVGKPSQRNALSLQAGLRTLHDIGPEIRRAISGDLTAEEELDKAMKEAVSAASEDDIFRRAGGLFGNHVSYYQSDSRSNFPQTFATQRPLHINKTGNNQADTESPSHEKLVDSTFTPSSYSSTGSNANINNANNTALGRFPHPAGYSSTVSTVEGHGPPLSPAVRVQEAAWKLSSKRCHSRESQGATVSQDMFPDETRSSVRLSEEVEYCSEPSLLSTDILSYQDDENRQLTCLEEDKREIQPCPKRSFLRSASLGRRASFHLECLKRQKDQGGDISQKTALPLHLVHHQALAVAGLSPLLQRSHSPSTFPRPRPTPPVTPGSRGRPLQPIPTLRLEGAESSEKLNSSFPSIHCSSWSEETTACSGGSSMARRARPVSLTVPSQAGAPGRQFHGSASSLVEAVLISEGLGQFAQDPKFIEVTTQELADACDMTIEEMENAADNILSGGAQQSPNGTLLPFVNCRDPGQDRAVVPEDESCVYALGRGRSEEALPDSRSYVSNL

[5] = target: T4, 5-hydroxytryptamine receptor 1A (Homo sapiens, UniProt P08908); format: functional, cell-based
T4 sequence (P08908 whole entry): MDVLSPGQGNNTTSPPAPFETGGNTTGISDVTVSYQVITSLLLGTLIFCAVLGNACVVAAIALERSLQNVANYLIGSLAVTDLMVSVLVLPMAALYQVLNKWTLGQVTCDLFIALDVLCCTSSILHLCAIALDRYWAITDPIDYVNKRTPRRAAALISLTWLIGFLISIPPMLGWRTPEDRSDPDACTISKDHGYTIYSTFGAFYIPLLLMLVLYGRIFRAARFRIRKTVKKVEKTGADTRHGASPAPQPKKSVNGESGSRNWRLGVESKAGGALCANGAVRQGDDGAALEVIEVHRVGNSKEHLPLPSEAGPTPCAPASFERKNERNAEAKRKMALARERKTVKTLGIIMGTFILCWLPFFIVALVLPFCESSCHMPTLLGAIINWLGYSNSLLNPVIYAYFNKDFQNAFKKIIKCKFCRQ

[6] = target: 5-hydroxytryptamine receptor 2B (Homo sapiens, UniProt P41595); format: functional, cell-based
[7] = target: Prostaglandin G/H synthase 1 (Homo sapiens, UniProt P23219); format: functional
Prostaglandin G/H synthase 1, sequence (P23219 whole entry): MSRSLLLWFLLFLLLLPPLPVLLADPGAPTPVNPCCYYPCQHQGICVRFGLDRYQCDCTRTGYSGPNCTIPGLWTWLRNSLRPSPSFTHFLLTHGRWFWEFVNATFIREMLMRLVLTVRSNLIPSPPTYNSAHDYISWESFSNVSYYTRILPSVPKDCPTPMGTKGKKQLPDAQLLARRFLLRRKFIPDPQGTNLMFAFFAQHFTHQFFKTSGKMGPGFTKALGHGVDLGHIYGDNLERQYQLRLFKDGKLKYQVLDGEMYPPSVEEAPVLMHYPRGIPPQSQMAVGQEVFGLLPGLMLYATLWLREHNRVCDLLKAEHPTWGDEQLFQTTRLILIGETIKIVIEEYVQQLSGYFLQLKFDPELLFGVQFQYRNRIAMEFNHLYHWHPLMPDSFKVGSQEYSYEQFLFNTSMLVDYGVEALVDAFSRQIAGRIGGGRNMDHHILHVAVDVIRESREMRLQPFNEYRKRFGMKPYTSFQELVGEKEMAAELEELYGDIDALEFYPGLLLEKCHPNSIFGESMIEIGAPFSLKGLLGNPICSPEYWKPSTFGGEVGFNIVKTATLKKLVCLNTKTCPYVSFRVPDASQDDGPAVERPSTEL

Acetylcholinesterase = Acetylcholinesterase (Homo sapiens, UniProt P22303); format: functional
Acetylcholinesterase, sequence (P22303 whole entry): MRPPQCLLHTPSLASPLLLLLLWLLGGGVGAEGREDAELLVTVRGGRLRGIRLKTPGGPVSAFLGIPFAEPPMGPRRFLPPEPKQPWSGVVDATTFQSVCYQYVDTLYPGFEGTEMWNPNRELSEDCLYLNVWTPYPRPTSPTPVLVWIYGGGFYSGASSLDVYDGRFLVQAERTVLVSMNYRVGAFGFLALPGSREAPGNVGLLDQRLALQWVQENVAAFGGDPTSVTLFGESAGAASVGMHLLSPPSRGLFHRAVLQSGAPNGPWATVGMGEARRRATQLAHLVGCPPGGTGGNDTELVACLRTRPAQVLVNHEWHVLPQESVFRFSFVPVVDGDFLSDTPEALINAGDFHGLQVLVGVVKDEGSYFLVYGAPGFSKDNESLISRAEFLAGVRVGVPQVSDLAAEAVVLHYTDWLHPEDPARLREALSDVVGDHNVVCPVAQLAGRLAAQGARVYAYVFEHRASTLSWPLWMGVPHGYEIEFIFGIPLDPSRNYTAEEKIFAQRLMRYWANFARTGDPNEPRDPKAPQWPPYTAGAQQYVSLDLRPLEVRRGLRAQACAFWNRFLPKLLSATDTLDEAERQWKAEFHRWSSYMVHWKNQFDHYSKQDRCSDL

D(3) dopamine receptor = D(3) dopamine receptor (Homo sapiens, UniProt P35462)
D(3) dopamine receptor, sequence (P35462 whole entry): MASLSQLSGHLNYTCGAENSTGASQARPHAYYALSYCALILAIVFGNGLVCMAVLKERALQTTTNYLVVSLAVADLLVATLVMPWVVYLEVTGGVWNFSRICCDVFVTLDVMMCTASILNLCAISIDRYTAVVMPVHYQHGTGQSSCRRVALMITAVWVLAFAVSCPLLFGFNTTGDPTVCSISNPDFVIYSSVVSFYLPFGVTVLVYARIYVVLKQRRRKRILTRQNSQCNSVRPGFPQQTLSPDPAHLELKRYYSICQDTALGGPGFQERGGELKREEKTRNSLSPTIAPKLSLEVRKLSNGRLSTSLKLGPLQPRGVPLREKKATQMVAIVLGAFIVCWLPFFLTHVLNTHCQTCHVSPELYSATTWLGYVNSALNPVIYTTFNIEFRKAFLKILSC

Estrogen receptor = target: T5, Estrogen receptor (Homo sapiens, UniProt P03372)
T5 sequence (P03372 whole entry): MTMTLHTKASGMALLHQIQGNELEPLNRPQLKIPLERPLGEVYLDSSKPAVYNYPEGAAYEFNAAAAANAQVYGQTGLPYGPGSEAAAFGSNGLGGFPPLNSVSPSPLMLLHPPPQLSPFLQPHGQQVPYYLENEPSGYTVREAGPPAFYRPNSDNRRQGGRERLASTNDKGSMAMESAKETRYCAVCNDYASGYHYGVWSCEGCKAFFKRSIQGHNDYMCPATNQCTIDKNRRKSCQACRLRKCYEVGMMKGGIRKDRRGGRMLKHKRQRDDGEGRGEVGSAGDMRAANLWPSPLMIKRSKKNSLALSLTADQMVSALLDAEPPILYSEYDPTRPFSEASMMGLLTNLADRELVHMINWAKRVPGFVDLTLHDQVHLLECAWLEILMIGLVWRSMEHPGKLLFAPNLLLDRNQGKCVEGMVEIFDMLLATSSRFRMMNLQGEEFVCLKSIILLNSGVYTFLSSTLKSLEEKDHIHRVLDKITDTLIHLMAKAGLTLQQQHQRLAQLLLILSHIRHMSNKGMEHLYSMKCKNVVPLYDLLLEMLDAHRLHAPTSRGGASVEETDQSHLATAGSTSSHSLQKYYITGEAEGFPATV
Further: assay procedure not described here.

Histamine H2 receptor, sequence (P25021 whole entry): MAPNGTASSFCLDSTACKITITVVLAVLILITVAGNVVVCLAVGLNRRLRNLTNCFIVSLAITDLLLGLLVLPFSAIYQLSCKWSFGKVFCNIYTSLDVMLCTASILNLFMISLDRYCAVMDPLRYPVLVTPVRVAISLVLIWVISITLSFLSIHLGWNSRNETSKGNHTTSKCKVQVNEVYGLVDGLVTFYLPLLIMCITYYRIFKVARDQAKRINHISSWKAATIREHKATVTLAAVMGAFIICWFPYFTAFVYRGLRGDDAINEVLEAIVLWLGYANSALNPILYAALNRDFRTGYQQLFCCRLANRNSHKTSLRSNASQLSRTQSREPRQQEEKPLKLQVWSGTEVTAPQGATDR

| SMILES | AC50 (Histamine H2 receptor) | AC50 [1] | AC50 [2] | AC50 (Endothelin-1 receptor) | AC50 (Vasopressin V2 receptor) | AC50 [3] | AC50 [4] | AC50 [5] | AC50 [6] | AC50 [7] | AC50 (Acetylcholinesterase) | AC50 (D(3) dopamine receptor) | AC50 (Estrogen receptor) |
| --- | --- | --- | --- | --- | --- | --- | --- | --- | --- | --- | --- | --- | --- |
| COC(=O)N[C@H](C(=O)N1CCC[C@H]1c1nc(-c2ccc(-c3ccc(-c4c[nH]c([C@@H]5CCCN5C(=O)[C@@H](NC(=O)OC)C(C)C)n4)cc3)cc2)c[nH]1)C(C)C | > 30 µM | > 30 µM | > 30 µM | > 30 µM | > 30 µM | > 30 µM | > 30 µM |  |  |  |  |  |  |
| CC(N)Cc1ccccc1 (configuration not stated) [AMPHETAMINE] | > 10 µM | > 30 µM | > 30 µM | > 30 µM | > 30 µM | > 30 µM | > 10 µM | > 30 µM |  |  |  |  |  |
| CC(C)NCC(O)COc1ccc(COCCOC(C)C)cc1 (configuration not stated) [BISOPROLOL] | > 10 µM |  | > 30 µM | > 30 µM | > 30 µM |  | > 10 µM | > 10 µM |  |  |  |  |  |
| CCC(=O)O[C@H]1[C@H](O[C@@H]2[C@@H](C)[C@H](O[C@H]3C[C@@](C)(OC)[C@@H](O)[C@H](C)O3)[C@@H](C)C(=O)O[C@H](CC)[C@@](C)(O)[C@H](O)[C@@H](C)C(=O)[C@H](C)C[C@@]2(C)O)O[C@H](C)C[C@@H]1N(C)C [ERYTHROMYCIN PROPIONATE] |  |  |  |  |  |  |  |  | > 30 µM | > 10 µM | > 30 µM | 12.9 µM | > 30 µM |
| C#C[C@]1(O)CC[C@H]2[C@@H]3CCc4cc(O)ccc4[C@H]3CC[C@@]21C [ETHINYL ESTRADIOL] | > 10 µM |  | > 30 µM | > 30 µM | > 30 µM | > 10 µM | > 10 µM |  | > 30 µM | > 30 µM | > 30 µM | > 30 µM |  |
| Cc1c(-c2ccccc2)oc2c(C(=O)OCCN3CCCCC3)cccc2c1=O [FLAVOXATE] |  |  |  |  |  |  |  |  | > 30 µM | > 30 µM | 17.6 µM | 0.88 µM | > 30 µM |
| CC1(C)O[C@@H]2C[C@H]3[C@@H]4C[C@H](F)C5=CC(=O)CC[C@]5(C)[C@H]4[C@@H](O)C[C@]3(C)[C@]2(C(=O)CO)O1 [FLURANDRENOLIDE] |  |  |  |  |  |  |  |  | > 30 µM | > 30 µM | > 30 µM | > 30 µM | > 30 µM |
| CC(C)C(=O)Nc1ccc([N+](=O)[O-])c(C(F)(F)F)c1 [FLUTAMIDE] | > 30 µM | > 30 µM | > 30 µM |  | > 30 µM | > 10 µM | > 10 µM | > 10 µM | > 30 µM | > 30 µM | > 30 µM | > 30 µM | > 30 µM |
| COc1ccc2c(c1)C(=O)N(CCc1ccc(S(=O)(=O)NC(=O)NC3CCCCC3)cc1)C(=O)C2(C)C [GLIQUIDONE] | > 30 µM | > 30 µM | > 30 µM | > 30 µM | > 30 µM | > 30 µM | > 30 µM |  |  |  |  |  |  |
| NS(=O)(=O)c1cc2c(cc1Cl)NCNS2(=O)=O [HYDROCHLOROTHIAZIDE] | > 10 µM |  | > 30 µM | > 30 µM | > 30 µM | > 10 µM | > 10 µM | > 10 µM |  |  |  |  |  |
| C#C[C@]1(O)CC[C@H]2[C@@H]3CCC4=CC(=O)CC[C@@H]4[C@H]3CC[C@@]21CC [LEVONORGESTREL] |  |  |  |  |  |  |  |  | > 30 µM | > 30 µM | > 30 µM | > 30 µM | 8.65 µM |
| OC[C@@H](O)[C@@H](O)[C@H](O)[C@H](O)CO [MANNITOL] |  |  |  |  |  |  |  |  | > 30 µM | > 30 µM | > 30 µM | > 30 µM | > 30 µM |
| CN1CCCC(CN2c3ccccc3Sc3ccccc32)C1 (configuration not stated) [MEPAZINE] |  |  |  |  |  |  |  |  | > 30 µM | > 30 µM | > 30 µM |  | > 30 µM |
| Sc1ncnc2nc[nH]c12 [MERCAPTOPURINE ANHYDROUS] |  |  |  |  |  |  |  |  | > 30 µM | 14.6 µM | > 30 µM | > 30 µM | > 30 µM |
| C[N+]1(C)[C@@H]2C[C@@H](OC(=O)[C@H](CO)c3ccccc3)C[C@H]1[C@@H]1O[C@@H]12 [METHSCOPOLAMINE] |  |  |  |  |  |  |  |  | > 30 µM | > 30 µM | > 30 µM | > 30 µM | > 30 µM |
| CCc1nn(CCCN2CCN(c3cccc(Cl)c3)CC2)c(=O)n1CCOc1ccccc1 [NEFAZODONE] |  |  | > 30 µM | > 30 µM | > 30 µM | > 10 µM | > 10 µM |  |  |  |  |  |  |
| CCc1ccc(CCOc2ccc(CC3SC(=O)NC3=O)cc2)nc1 (configuration not stated) [PIOGLITAZONE] | > 10 µM |  | > 30 µM | 15.9 µM | > 30 µM | > 10 µM | > 10 µM | > 10 µM | > 30 µM | > 30 µM | > 30 µM | > 30 µM | > 30 µM |
| CC(O)CO (configuration not stated) [PROPYLENE GLYCOL] |  |  |  |  |  |  |  |  | > 30 µM | > 30 µM | > 30 µM | > 30 µM | > 30 µM |
| NC(=O)c1cnccn1 [PYRAZINAMIDE] | > 30 µM | 28 µM | > 30 µM | > 30 µM | > 30 µM | > 30 µM | > 30 µM | > 10 µM | > 30 µM | > 30 µM | > 30 µM | > 30 µM | > 30 µM |
| CNC(=O)c1cc(Oc2ccc(NC(=O)Nc3ccc(Cl)c(C(F)(F)F)c3)cc2)ccn1 [SORAFENIB] | > 30 µM | 15 µM | > 30 µM | > 30 µM | > 30 µM | 28 µM | > 30 µM |  |  |  |  |  |  |
| CCCS(=O)(=O)Nc1ccc(F)c(C(=O)c2c[nH]c3ncc(-c4ccc(Cl)cc4)cc23)c1F [VEMURAFENIB] | > 30 µM | > 30 µM | > 30 µM | > 30 µM | > 30 µM | > 30 µM | > 30 µM |  |  |  |  |  |  |
| OCc1cc([C@@H](O)CNCCCCCCOCCOCc2c(Cl)cccc2Cl)ccc1O [VILANTEROL] |  |  |  | > 30 µM |  |  |  | > 30 µM |  |  |  |  |  |

— ChEMBL document CHEMBL5291721, “A preclinical secondary pharmacology resource illuminates target-adverse drug reaction associations of marketed drugs” (Nat Commun, 2023)
